Values joined by “and” are separate entries in the source; they are usually repeats but may differ in a detail not shown here. Identical values can stand only once. Like-named read-outs stand apart in the source and are kept apart here.
Assays:
[1] = Cytotoxicity by WST-8 assay using uninfected Vero E6 cells; assay type: cell-based; conditions: African green monkey
SARS-CoV-2 [2] = assay: microbe, parasite or virus in culture; assay type: cell-based; conditions: MOI 0.001, day 3 post-infection; for EC50: Severe acute respiratory syndrome coronavirus 2, Vero C1008, 72 h, footnote a: CPE assay, SARS-CoV-2-infected Vero E6 cells, read-out: EC50 (anti-SARS-CoV-2 activity, CPE assay); for Anti-SARS-CoV-2 activity by CPE assay (crystal violet staining): Vero E6 cells, 30 μM in Figure 2
SARS-CoV-2 [3] = assay: qRT-PCR of viral RNA using SARS-CoV-2-infected Vero E6 cells; assay type: cell-based; conditions: Severe acute respiratory syndrome coronavirus 2, Vero C1008, footnote b: qRT-PCR of viral RNA, MOI 0.001, non-linear curve fit, read-out: EC50 (95% CI) (anti-SARS-CoV-2 activity, qRT-PCR of viral RNA)
SARS-CoV-2 [4] = assay: Syrian hamster model of COVID-19, inhalation treatment by nebulizer; conditions: for Inflammatory area of lung sections: lung histopathology 5 dpi, INH 110 mg/kg/day qd
SARS-CoV-2 [5] = assay: Syrian hamster model of COVID-19, intraperitoneal treatment; conditions: for Body weight change of infected hamsters / Inflammatory area of lung sections: IP, 2 at 110 mg/kg/day qd, Molnupiravir 220 mg/kg/day bid; for Inflammatory area of lung sections: lung histopathology 5 dpi
[6] = biological target: recombinant SARS-CoV-2 RdRp complex (Severe acute respiratory syndrome coronavirus 2, UniProt P0DTD1); assay type: biochemical; conditions: 10 μM, 34°C, 2 h
[7] = biological target: T1, vaccinia capping enzyme (VCE) (Vaccinia virus, UniProt P04298); assay type: biochemical; conditions: model RNA fragment, 37°C, 2 h, LC-MS
T1 construct: purchased CellScript C-SCCS2250

[8] = WST-8 assay, uninfected Vero E6 cells, read-out: CC50

| Structure (SMILES) | CC50 [1] [µM] | EC50 (SARS-CoV-2 [2]) [µM] | EC50 (SARS-CoV-2 [3]) [µM] | Anti-SARS-CoV-2 activity by CPE assay (crystal violet staining) (SARS-CoV-2 [2]) | also measured |
| --- | --- | --- | --- | --- | --- |
| Nc1nccc2c1ncn2[C@@H]1O[C@H](CO)[C@@H](O)[C@H]1O [Compound 1, 3-deazaadenosine] | > 200 | > 30 | – | – | – |
| Nc1cc2c(ncn2[C@@H]2O[C@H](CO)[C@@H](O)[C@H]2O)c(=O)[nH]1 [Compound 2, 3-Deazaguanosine] | > 200 | – | 1.14 | inhibited viral replication | Lower infectious viral titer in lungs (fold) (SARS-CoV-2 [4]; 5 dpi, inhalation, approximately 110 mg/kg/day qd): more than 10^2 fold; Body weight loss associated with infection (SARS-CoV-2 [4]; inhalation, approximately 110 mg/kg/day qd): reduction in the body weight loss; Inflammatory area of lung sections (SARS-CoV-2 [4]): 0.98 (±0.36) % and 0.98 ± 0.36%; Lower infectious viral titer in lungs (fold) (SARS-CoV-2 [5]; 2 dpi, IP 110 mg/kg/day qd): > 10^5 fold; Body weight change of infected hamsters (SARS-CoV-2 [5]): marginal reduction in body weight; Inflammatory area of lung sections (SARS-CoV-2 [5]): 0.02 ± 0.02% |
| Nc1cc2c(ncn2[C@@H]2O[C@H](COP(=O)(O)OP(=O)(O)OP(=O)(O)O)[C@@H](O)[C@H]2O)c(=O)[nH]1 [Compound 2-TP, 6-Amino-1-(β-D-ribofuranosyl)-1H-imidazo[4,5-c]pyridin-4(5H)-one 5′-triphosphate] | – | – | – | – | RNA synthesis by recombinant SARS-CoV-2 RdRp complex (fluorescence intensity) [6]: not inhibited; 5′-capped RNA formed by VCE in the presence of both GTP and the compound [7]: no 5′-capped RNA; 5′-capped RNA formed by VCE with the compound in place of GTP [7]: small amounts of 5′-C^3GpppA-capped RNA (IIIb) and 5′-m7C^3GpppG-capped RNA (IVb) |
| OC[C@H]1O[C@@H](n2cnc3c(O)nccc32)[C@H](O)[C@@H]1O [Compound 3, 3-deazainosine] | > 200 | > 30 | – | – | – |
| Nc1[nH]c(=O)c2ncn([C@@H]3O[C@H](CO)[C@@H](O)[C@H]3O)c2c1F [Compound 4, 3-fluoro-3-Deazaguanosine] | > 200 | > 30 | – | loss of anti-viral activity | – |
| Nc1[nH]c(=O)c2ncn([C@@H]3O[C@H](CO)[C@@H](O)[C@H]3O)c2c1Cl [Compound 5, 3-chloro-3-Deazaguanosine] | > 200 | > 30 | – | loss of anti-viral activity | – |
| Nc1cc2c(ncn2[C@@H]2O[C@H](CO)[C@@H](O)[C@H]2O)c(N)n1 [Compound 6, 4,6-Diamino-1-β-D-ribofuranosyl-1H-imidazo[4,5-c]pyridine] | > 200 | > 30 | – | no inhibitory effects | – |
| Nc1cc2[nH]cnc2c(=O)[nH]1 [Compound 10, 6-Amino-1H-Imidazo[4,5-c]pyridin-4(5H)-one] | – | – | 12.6 | had anti-SARS-CoV-2 activity | CC50 [1, 8]: > 200 µM |
| Nc1cc2c(ncn2[C@H]2C[C@H](O)[C@@H](CO)O2)c(=O)[nH]1 [Compound 11, 6-Amino-1-(2-deoxy-β-D-ribofuranosyl)-1H-imidazo[4,5-c]pyridin-4(5H)-one] | > 200 | – | 5.35 | had anti-SARS-CoV-2 activity | – |
| CC(C)C(=O)OC[C@H]1O[C@@H](n2ccc(NO)nc2=O)[C@H](O)[C@@H]1O [Molnupiravir, reference compound] | – | – | – | – | Inflammatory area of lung sections (SARS-CoV-2 [4]): 4.77 (±3.04) %; Body weight change of infected hamsters (SARS-CoV-2 [5]): marginal reduction in body weight; Inflammatory area of lung sections (SARS-CoV-2 [5]): 0.24 ± 0.16% |
| O=c1nc(NO)ccn1[C@@H]1O[C@H](CO)[C@@H](O)[C@H]1O [NHC, N^4-hydroxy cytidine, reference compound] | > 200 | – | 0.27 | – | – |
| CCC(CC)COC(=O)[C@H](C)N[P@](=O)(OC[C@H]1O[C@@](C#N)(c2ccc3c(N)ncnn23)[C@H](O)[C@@H]1O)Oc1ccccc1 [Remdesivir, reference compound] | – | – | 0.47 | – | CC50 [1, 8]: > 200 µM |
| Nc1nc2c(ncn2[C@H]2CC[C@@H](COP(=O)(O)OP(=O)(O)OP(=O)(O)O)O2)c(=O)[nH]1 [ddGTP, 2′,3′-dideoxy GTP, reference compound] | – | – | – | – | RNA synthesis by recombinant SARS-CoV-2 RdRp complex (fluorescence intensity) [6]: reduced |
